Experimental data as given in patent publication US12358895B2, “Process for manufacture of (S)-N-(3-((2-((4-((1-acetylpyrrolidin-3-yl)(methyl)amino)phenyl)amino)-5-methoxypyrimidin-4-yl)oxy)phenyl)acrylamide, and formulations thereof” (ACEA Therapeutics, Inc., priority 2018, dated 2025).

Tests used:
Assay type in all cases: physicochemical
[1] = pKa of the drug substance freebase
Description: (§1) The drug substance freebase is a weakly basic compound with a pKa of approximately 5.3. The aqueous solubility of the freebase is pH dependent. […] To enhance the absorption and bioavailability, a tartrate salt (Compound A-TA) was made to enhance the dissolution of the molecule in compositions intended for oral administration.

Aqueous solubility = experiment: Aqueous solubility
Description: Therefore, the L-(+)-tartrate salt of Compound A, referred to hereinafter as Compound A L-(+)-tartrate, or Compound A-TA, is especially suited for development and is used in many of the compositions and methods herein.
as §1

[2] = Chemical and polymorphic stability of solid forms
[3] = Storage stability of encapsulated Compound A-TA in HDPE bottle with deoxidizer; settings: opaque HDPE bottle, LDPE cap, deoxidizer (PharmaKeep CD20)

Row | SMILES | pKa [1] | water solubility (Aqueous solubility) | aqueous solubility at higher pH (Aqueous solubility) | aqueous solubility at higher pH (Aqueous solubility; listed as freebase) | aqueous solubility at lower pH (Aqueous solubility; lower pH) | chemical and polymorphic stability [2] | storage stability at 40° C. and 75% relative humidity ([3]; up to 6 months) | storage stability at 25° C. and 60% relative humidity ([3]; up to 24 months)
1 | C=CC(=O)Nc1cccc(Oc2nc(Nc3ccc(N(C)[C@H]4CCN(C(C)=O)C4)cc3)ncc2OC)c1 [Compound A, (S)—N-(3-(2-(4-((1-acetylpyrrolidin-3-yl)(methyl)amino)phenylamino)-5-methoxypyrimidin-4-yloxy)phenyl)acrylamide] | ~5.3 | low water solubility | nearly insoluble | almost insoluble | increases dramatically |  |  | 
2 | C=CC(=O)Nc1cccc(Oc2nc(Nc3ccc(N(C)[C@H]4CCN(C(C)=O)C4)cc3)ncc2OC)c1.O=C(O)C(O)C(O)C(=O)O [Compound A-TA, (S)—N-(3-((2-((4-((1-acetylpyrrolidin-3-yl)(methyl)amino)phenyl)amino)-5-methoxypyrimidin-4-yl)oxy)phenyl)acrylamide L-(+)-tartrate dihydrate] |  |  |  |  |  | high chemical and polymorphic stability | highly stable | highly stable
